In patent publication US9546157B2, “Asymmetric piperidinyl-substituted ureas as medicines” (Helsinn Healthcare SA, priority 2014, dated 2017):
“Also recorded” adds a separate entry of the source.

Key:
[1] = system: female Sprague-Dawley rats; experiment: Binge eating model in non-estrous female rats (food restriction + stress, HPF intake); assay type: in vivo, rat; settings: for HPF intake (binge eating) in R+S rats: 60 mg/kg by gavage 1 h before access to HPF
Experimental: In this Example, the therapeutic potential of compounds were tested for their ability to inhibit binge eating. The animal model used was developed to explore the combination of food restriction and stress. […] Considering the reliability and the robustness of this model, it was adopted to test the inventive compounds.
A total of N=117, 52-day-old female Sprague-Dawley rats (175-200 g) were used. Rats were acclimated in individual cages with metallic walls; the floor and the front wall made of metallic grid. The dimensions of the cage floor being 30 cm×30 cm; the cage is 30 cm high. A front door (30 cm×20 cm) made of metallic grid was positioned in the anterior wall of the cage to gain access to the inside of the cage; the remaining part of the front wall was equipped with a drinking burette.
Rats were kept in a room at constant temperature (20-22° C.) and humidity (45-55%) under a 12-h light/dark cycle (lights on at 08:00 am) with ad lib chow and water. All procedures were conducted in adherence to the European Community Directive for Care and Use of Laboratory Animals.
Rats were offered food pellets, 4RF18, Mucedola, Settimo Milanese, Italy (2.6 kcal/g). The Highly Palatable Food (HPF) was prepared by mixing:
Rats were exposed to 3 consecutive 8-day cycles followed by the final test on day 25:
a) the control group (NR+NS) had chow ad libitum for 4 days, on days 5-6 it received chow+HPF for 2 h; on days 7-8 it had chow ad libitum; on day 25 it was not exposed to stress;
b) the second group (R+S) had chow restricted to 66% of the normal intake for 4 days, was offered chow and HPF (2 h) on days 5-6 and only chow on days 7-8; on day 25 it […].
Body weights and food intake were recorded daily. Food intake is expressed as mean kilocalories per kilogram ingested±SEM.
Therefore, immediately after the test on day 25, vaginal smears were collected and analyzed under microscope to assess the ovarian phase, and data from rats in the estrous phase were not included in the statistical analysis. Vaginal smears were analyzed by an experienced experimenter blind to treatment conditions.
For 15 min, the container (China coffee cup) containing HPF is placed outside the cage; the container handle is hooked to the top wire wall of the cage in the hollow part where food pellets are usually offered. In these conditions, the animal is able to see the cup in which it received HPF on days 5, 6, 13, and 14 of the first two cycles, is able to see in part the HPF itself, and is able to smell its odour. In this 15-min period, the rat engages in repeated movements of the forepaws, head, and trunk aimed at obtaining the HPF, but it is not able to reach it. Rats undergo the stressful procedure between 10.00 and 12.00 am. After 15 min, the cup is placed inside the cage of the rats in the stress group (R+S), so that the HPF became accessible to the rat.
100 mg of each compound (H0816, H0860, H0847 and H0900) was accurately weighed and suspended in 13.33 ml of 0.5% carboxymethyl cellulose sodium salt (CMC, Sigma-Aldrich Cat. C4888, lot 120M0216V) solution. The lower dose solution was prepared by dilution of 30 mg/ml suspension with 0.5% CMC solution. Suspensions were prepared freshly on test day. Vehicle was composed by a solution of 0.5% carboxymethyl cellulose sodium salt and was prepared by dissolving 1 g of CMC in 200 ml of distilled water. 180 mg of Topiramate was accurately weighed and suspended in 12 ml of 0.5% CMC solution. Compounds (vehicle and active principles) were administered by gavage in a volume of 4 ml/kg of body weight one hour before access to HPF.
All data are expressed as the mean±s.e.m. and each value reflects the mean number of animals per group as described in the legends. For data evaluation, the analysis of variance (ANOVA) was used followed by post-hoc (Bonferroni's) test when appropriate. Statistical significance was set at P<0.05. The Software used for the Graphs was Origin 7.0. […]

GHSR1a [2] = molecular target: T1, GHSR1a (Homo sapiens, UniProt Q92847); experiment: Calcium FLIPR assay, GHSR-1a agonism; assay type: cell-based; parameters: Emax: unit not given here; settings: HEK293/GHSR1a cells
T1 construct: expressed in transfected cells; host or cells: HEK293
Summary of the method: (§1)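 Cells stably carrying human GHSR1a were plated a day ahead, dye-loaded, then given test compound. Agonist activity was the calcium rise over 2 minutes after compound addition at t=20 sec; antagonist activity was the reduction of the response to 10 nM ghrelin added together with compound.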

Metabolic Stability (D) = assay type: in vitro ADME; settings: D (not defined)
[3] = Metabolic Stability (H = Human); assay type: in vitro ADME
Metabolic Stability (R) = assay type: in vitro ADME; settings: R (not defined)
C57BL/6J mice = experiment: Food intake test in mouse (GHSR1a antagonists); assay type: in vivo; settings: for inhibition in vivo at 10 mg/kg: Mus musculus, ip, 1 h, i.p. 10 mg/kg
Summary of the method: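 Male C57BL/6J mice (18-22 g) were fasted overnight (16 h before dosing), then randomized by body weight to vehicle or test agent (n=6 each). Cumulative food intake was measured at 1, 2, 4, 8 and 24 hrs post-dose as premeasured food minus uneaten food.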

GHSR1a [4] = molecular target: T1, GHSR1a; experiment: Calcium FLIPR assay, GHSR-1a antagonism (reduction of ghrelin response); assay type: cell-based; settings: HEK293/GHSR1a cells, ghrelin 10 nM
Summary of the method: as §1

[5] = Metabolic Stability (M = Mouse); assay type: in vitro ADME
rat = experiment: Food intake in rat (PO, with or without ANA); assay type: in vivo
[6] = first test, acute administration (compounds 3 and 30 mg/kg, Topiramate 60 mg/kg)
[7] = second test, H0816 3, 10 and 30 mg/kg, Topiramate 60 mg/kg

T1 sequence (Q92847 whole entry): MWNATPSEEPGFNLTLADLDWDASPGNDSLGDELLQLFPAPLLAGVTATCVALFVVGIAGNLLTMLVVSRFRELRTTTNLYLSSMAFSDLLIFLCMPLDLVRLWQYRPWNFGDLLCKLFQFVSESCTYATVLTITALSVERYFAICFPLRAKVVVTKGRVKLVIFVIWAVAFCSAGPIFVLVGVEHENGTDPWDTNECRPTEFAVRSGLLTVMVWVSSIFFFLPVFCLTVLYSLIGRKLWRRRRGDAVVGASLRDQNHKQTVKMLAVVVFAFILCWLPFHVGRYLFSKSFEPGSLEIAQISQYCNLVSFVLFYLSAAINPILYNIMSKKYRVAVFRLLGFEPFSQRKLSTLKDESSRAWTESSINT

Compound | EC50 (GHSR1a [2]) [nM] | Metabolic Stability H [3] | Metabolic Stability R (Metabolic Stability (R)) | IC50 (GHSR1a [4]) [nM] | Metabolic Stability M [5] | inhibition in vivo at 10 mg/kg (C57BL/6J mice) [%] | further results
CC1(C)O[C@@H]2[C@@H](CO[C@@]3(COS(N)(=O)=O)OC(C)(C)O[C@@H]23)O1 [Topiramate, reference compound] | – | – | – | – | – | – | HPF intake (binge eating) in R+S rats ([1]; first test, vs R+S vehicle, 60 mg/kg): confirmed its inhibitory effect; also recorded: statistically significant at all time points; also recorded: completely abolished BE episode; 2-h chow food intake during binge eating test [1, 6]: did not modify 2-h chow intake; 24-h chow food intake after binge eating test [1, 6]: did not modify 24-h chow intake; HPF intake (binge eating) in R+S rats ([1]; second test): statistically significant at all time points; 2-h chow intake [1, 7]: did not modify; 24-h chow intake [1, 7]: did not modify
CC(NC(=O)N(C)C1CCN(C)CC1)c1ccc(C#Cc2cscn2)c(Cl)c1Cl (stereo not drawn) [Compound H0751, 3-(1-(2,3-dichloro-4-(thiazol-4-ylethynyl)phenyl)ethyl)-1-methyl-1-(1-methylpiperidin-4-yl)urea] | 62 | High H High M | – | 6 | High H High M | 91 | Emax (GHSR1a [2]): 1267; Mouse Food Intake, result in words (C57BL/6J mice; PO, dose not given): no effect; Food intake in rat, result in words (rat; PO + ANA): no effect
CN1CCC(N(C)C(=O)NC(c2ccc(-c3cnccn3)c(Cl)c2Cl)C(F)(F)F)CC1 (stereo not drawn) [Compound H0830, 3-(1-(2,3-dichloro-4-(pyrazin-2-yl)phenyl)-2,2,2-trifluoroethyl)-1-methyl-1-(1-methylpiperidin-4-yl)urea] | > 30000 | High | High | 3 | High | – | Metabolic Stability D (Metabolic Stability (D)): Medium
CCN(C(=O)NC(C)c1ccc(-c2cnccn2)c(Cl)c1Cl)C1CCN(C)CC1 (stereo not drawn) [Compound H0826, 3-(1-(2,3-dichloro-4-(pyrazin-2-yl)phenyl)ethyl)-1-ethyl-1-(1-methylpiperidin-4-yl)urea] | > 30000 | High | High | 5 | High | – | Metabolic Stability D (Metabolic Stability (D)): Medium
CC(NC(=O)N(C)C1CCN(C)CC1)c1ccc(-c2cncc(F)n2)c(Cl)c1Cl (stereo not drawn) [Compound H0795, 3-(1-(2,3-dichloro-4-(6-fluoropyrazin-2-yl)phenyl)ethyl)-1-methyl-1-(1-methylpiperidin-4-yl)urea] | > 30000 | High H High M | – | 4 | High H High M | – | Mouse Food Intake, result in words (C57BL/6J mice; PO + ANA (ANAM), mice, dose not given): inhib; Mouse Food Intake, result in words (C57BL/6J mice; PO, dose not given): NSE; Food intake in rat, result in words (rat; PO + ANA): no activity
CC(NC(=O)N(C)C1CCN(C)CC1)c1ccc(C#Cc2ccco2)c(Cl)c1Cl (stereo not drawn) [Compound H0762, 3-(1-(2,3-dichloro-4-(furan-2-ylethynyl)phenyl)ethyl)-1-methyl-1-(1-methylpiperidin-4-yl)urea] | > 30000 | High H High M | – | 5 | High H High M | 93 | Mouse Food Intake, result in words (C57BL/6J mice; PO, dose not given): NSEt; Food intake in rat, result in words (rat; PO): NSEt
CC(NC(=O)N(Cc1ccc(CO)cc1)C1CCN(C)CC1)c1ccc(-c2cn[nH]c2)c(Cl)c1Cl (stereo not drawn) [Compound H0553, 3-(1-(2,3-dichloro-4-(1H-pyrazol-4-yl)phenyl)ethyl)-1-(4-(hydroxymethyl)benzyl)-1-(1-methylpiperidin-4-yl)urea] | > 30000 | Medium | – | 7 | Poor | 57 | –
CC(NC(=O)N(O)C1CCN(C)CC1)c1ccc(-c2cncc(C#N)c2)c(Cl)c1Cl (stereo not drawn) [Compound H0667, 3-(1-(2,3-dichloro-4-(5-cyanopyridin-3-yl)phenyl)ethyl)-1-hydroxy-1-(1-methylpiperidin-4-yl)urea] | 3 | High H High M | – | < 1 | High H High M | 76 | Emax (GHSR1a [2]): 4887

Second part, led by results:

EC50 (GHSR1a [2]) [nM] | Metabolic Stability H [3] | Metabolic Stability R (Metabolic Stability (R)) | IC50 (GHSR1a [4]) [nM] | Metabolic Stability M [5] | Compound | inhibition in vivo at 10 mg/kg (C57BL/6J mice) [%] | further results
> 30000 | High H High M High R High D | High H High M High R High D | 2 | High H High M High R High D | C[C@H](NC(=O)N(C)C1CCN(C)C1)c1ccc(-c2cnccn2)c(Cl)c1Cl (mixture of isomers) [Compound H0837, 3-((S)-1-(2,3-dichloro-4-(pyrazin-2-yl)phenyl)ethyl)-1-methyl-1-(1-methylpyrrolidin-3-yl)urea] | – | Metabolic Stability D (Metabolic Stability (D)): High H High M High R High D; Mouse Food Intake % increase (C57BL/6J mice; 2 h, 30 mg/kg PO mice): 180%; Mouse Food Intake, result in words (C57BL/6J mice; PO 10 mg/kg + ANA (ANAM) 30 mg/kg mice): NSE
> 30000 | Medium H Medium M Medium R | Medium H Medium M Medium R | 10 | Medium H Medium M Medium R | CC(NC(=O)N(Cc1ccccc1)C1CCN(C)CC1)c1ccc(-c2cnccn2)c(Cl)c1Cl (stereo not drawn) [Compound H0825, 1-benzyl-3-(1-(2,3-dichloro-4-(pyrazin-2-yl)phenyl)ethyl)-1-(1-methylpiperidin-4-yl)urea] | – | –
> 30000 | Medium | Medium | 6 | Low | CN1CC[C@@H](N(C)C(=O)NC(c2ccc(-c3cnccn3)c(Cl)c2Cl)C(F)(F)F)C(C)(C)C1 (stereo partly drawn) [Compound H0865, 3-(1-(2,3-dichloro-4-(pyrazin-2-yl)phenyl)-2,2,2-trifluoroethyl)-1-methyl-1-((R)-1,3,3-trimethylpiperidin-4-yl)urea] | – | –
